Laboratory results taken from PMC6609467 (ChemMedChem, 2019).

Experiments:
[1] = target: T1, NDM-1 (Klebsiella pneumoniae, UniProt C7C422); test: Inhibition of NDM-1 catalyzed meropenem hydrolysis; type: biochemical
[2] = target: T1, NDM-1; test: Inhibition of NDM-1 catalyzed Fluorocillin hydrolysis; type: biochemical
[3] = target: VIM-2 (Escherichia coli, UniProt Q5U7L7); test: Inhibition of VIM-2 catalyzed Fluorocillin hydrolysis; type: biochemical
[4] = target: ZnZn-NDM-1 (Klebsiella pneumoniae, UniProt C7C422); test: Equilibrium dialysis, Zn; type: binding; conditions: for Zn(II) removal from NDM-1 in equilibrium dialysis: NDM-1 8 μM, compound 16 - 128 μM; for Zn(II) removal from NDM-1 at 32 μM compound: Figure S2; for Zn(II) retained by NDM-1 at highest tested concentration: 128 μM compound; for Inhibition mechanism against NDM-1: from equilibrium dialysis and UV-vis of CoCo-NDM-1
Chain of ZnZn-NDM-1 (C7C422 29-270, looked up): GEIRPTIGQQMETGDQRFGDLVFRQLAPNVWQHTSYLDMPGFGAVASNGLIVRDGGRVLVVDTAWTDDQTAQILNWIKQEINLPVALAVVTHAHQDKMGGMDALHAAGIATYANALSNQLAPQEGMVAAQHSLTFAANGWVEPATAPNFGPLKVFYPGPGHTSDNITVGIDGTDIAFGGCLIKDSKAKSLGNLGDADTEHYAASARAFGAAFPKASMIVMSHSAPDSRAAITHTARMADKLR

[5] = target: IMP-1 (Serratia marcescens, UniProt P52699); test: Inhibition of IMP-1 catalyzed Fluorocillin hydrolysis; type: biochemical
Chain of IMP-1 (P52699 19-246, species assumed): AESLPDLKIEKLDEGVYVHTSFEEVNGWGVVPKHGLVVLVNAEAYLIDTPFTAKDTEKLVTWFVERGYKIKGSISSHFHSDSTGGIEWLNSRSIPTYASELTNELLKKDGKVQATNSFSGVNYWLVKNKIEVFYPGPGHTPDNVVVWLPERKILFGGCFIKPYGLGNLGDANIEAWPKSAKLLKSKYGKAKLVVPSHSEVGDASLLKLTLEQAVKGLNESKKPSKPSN

[6] = target: T1, NDM-1; conditions: read-out: KM, NDM-1; Fluorocillin as substrate; ref [28], [43]; cited from earlier work
[7] = target: T1, NDM-1; conditions: meropenem as substrate of NDM-1

T1 sequence (C7C422 29-270 limits assumed): as the sequence (C7C422 29-270, looked up) above

CS(=O)(=O)Cc1cccc(C(=O)O)n1 [Compound 6, 6-((Methylsulfonyl)methyl)picolinic acid]
IC50 [1]: > 10000 nM

O=C(O)c1cc(-c2cccc(Cl)c2)cc(CP(=O)(O)O)n1 [Compound 18l, 4-(3-Chlorophenyl)-6-(phosphonomethyl)picolinic acid]
IC50 [1]: 1290 ± 70 nM

COc1cccc(-c2cc(CP(=O)(O)O)nc(C(=O)O)c2)c1 [Compound 18c, 4-(3-Methoxyphenyl)-6-(phosphonomethyl)picolinic acid]
IC50 [1]: 420 ± 20 nM

Nc1ccc(-c2cc(CP(=O)(O)O)nc(C(=O)O)c2)cc1 [Compound 18h, 4-(4-Aminophenyl)-6-(phosphonomethyl)picolinic acid]
IC50 [1]: 300 ± 10 nM

O=C(O)c1cccc(C(=O)O)n1 [DPA, dipicolinic acid, reference compound]
IC50 [2]: 330 ± 40 nM
IC50 [3]: 2340 ± 40 nM
Zn(II) removal from NDM-1 in equilibrium dialysis [4]: significantly reduced

O=C(O)c1cccc(P(=O)(O)O)n1 [Compound 1, 6-Phosphonopicolinic acid]
IC50 [2]: 64 ± 1 nM
IC50 [5]: 850 ± 60 nM
IC50 [3]: 850 ± 20 nM

Fluorocillin
Km [6]: 0.46 µM

O=C(O)c1cc(-c2ccc(Cl)cc2)cc(CP(=O)(O)O)n1 [Compound 18k, 4-(4-Chlorophenyl)-6-(phosphonomethyl)picolinic acid]
IC50 [1]: 400 ± 10 nM

O=C(O)c1cccc(CS(=O)(=O)O)n1 [Compound 5, 6-(Sulfomethyl)picolinic acid]
IC50 [1]: > 10000 nM

C[C@H](CS)C(=O)N1CCC[C@H]1C(=O)O [L-captopril, reference compound]
Zn(II) removal from NDM-1 in equilibrium dialysis [4]: did not show any evidence of Zn(II) removal

O=C(O)Cc1cccc(C(=O)O)n1 [Compound 3, 6-(Carboxymethyl)picolinic acid]
IC50 [1]: 7700 ± 600 nM
IC50 [2]: 2050 ± 90 nM
IC50 [5]: 59000 ± 5000 nM
IC50 [3]: 35000 ± 1000 nM
Zn(II) removal from NDM-1 in equilibrium dialysis [4]: removing only small amounts of Zn(II)

O=C(O)c1cc(-c2ccccc2Cl)cc(CP(=O)(O)O)n1 [Compound 18m, 4-(2-Chlorophenyl)-6-(phosphonomethyl)picolinic acid]
IC50 [1]: 950 ± 50 nM

CN(Cc1cccc(C(=O)O)n1)S(C)(=O)=O [Compound 8, 6-((N-Methylmethylsulfonamido)methyl)picolinic acid]
IC50 [1]: > 10000 nM

COc1ccc(-c2cc(CP(=O)(O)O)nc(C(=O)O)c2)cc1 [Compound 18b, 4-(4-Methoxyphenyl)-6-(phosphonomethyl)picolinic acid]
IC50 [1]: 200 ± 10 nM
Zn(II) removal from NDM-1 at 32 μM compound [4]: only slight Zn(II) removal
Zn(II) retained by NDM-1 at highest tested concentration [4]: one equivalent of Zn(II) was retained
Zn(II) removal from NDM-1 in equilibrium dialysis [4]: reduced tendency to remove Zn(II)

O=C(O)c1cccc(-c2nnn[nH]2)n1 [Compound 4, 6-(1H-Tetrazol-5-yl)picolinic acid]
IC50 [1]: 7000 ± 500 nM
Ki [1]: 2200 ± 500 nM
IC50 [2]: 2190 ± 130 nM
IC50 [5]: 22000 ± 1000 nM
IC50 [3]: 27000 ± 2000 nM
Zn(II) removal from NDM-1 in equilibrium dialysis [4]: removing only small amounts of Zn(II)
Inhibition mechanism against NDM-1 [4]: mainly via formation of a ternary complex

O=C(O)c1cccc(-c2nccs2)n1 [Compound 9, 6-(Thiazol-2-yl)picolinic acid]
IC50 [1]: > 10000 nM

O=C(O)c1cc(-c2ccccc2O)cc(CP(=O)(O)O)n1 [Compound 18g, 4-(2-Hydroxyphenyl)-6-(phosphonomethyl)picolinic acid]
IC50 [1]: 280 ± 10 nM

O=C(O)c1cccc(CP(=O)(O)O)n1 [Compound 2, 6-(Phosphonomethyl)picolinic acid]
IC50 [2]: 68 ± 2 nM
IC50 [5]: 630 ± 10 nM
IC50 [3]: 620 ± 10 nM
Zn(II) retained by NDM-1 at highest tested concentration [4]: less than one equivalent was retained
Inhibition mechanism against NDM-1 [4]: primarily via Zn(II) removal

O=C(O)c1cc(-c2ccccc2)cc(CP(=O)(O)O)n1 [Compound 18a, 4-Phenyl-6-(phosphonomethyl)picolinic acid]
IC50 [1]: 410 ± 20 nM

C[C@@H](O)[C@H]1C(=O)N2C(C(=O)O)=C(S[C@@H]3CN[C@H](C(=O)N(C)C)C3)[C@H](C)[C@H]12 [Meropenem, meropenem]
kcat [7]: 15.3 ± 0.4 s⁻¹

O=C(O)c1cc(-c2cccc(O)c2)cc(CP(=O)(O)O)n1 [Compound 18f, 4-(3-Hydroxyphenyl)-6-(phosphonomethyl)picolinic acid]
IC50 [1]: 280 ± 10 nM

Nc1cccc(-c2cc(CP(=O)(O)O)nc(C(=O)O)c2)c1 [Compound 18i, 4-(3-Aminophenyl)-6-(phosphonomethyl)picolinic acid]
IC50 [1]: 400 ± 20 nM
Zn(II) removal from NDM-1 at 32 μM compound [4]: only slight Zn(II) removal
Zn(II) retained by NDM-1 at highest tested concentration [4]: one equivalent of Zn(II) was retained
Zn(II) removal from NDM-1 in equilibrium dialysis [4]: reduced tendency to remove Zn(II)

O=C(O)c1cc(-c2ccc(O)cc2)cc(CP(=O)(O)O)n1 [Compound 18e, 4-(4-Hydroxyphenyl)-6-(phosphonomethyl)picolinic acid]
IC50 [1]: 480 ± 10 nM

Nc1ccccc1-c1cc(CP(=O)(O)O)nc(C(=O)O)c1 [Compound 18j, 4-(2-Aminophenyl)-6-(phosphonomethyl)picolinic acid]
IC50 [1]: 240 ± 10 nM

O=C(O)c1cccc(-c2ncco2)n1 [Compound 10, 6-(Oxazol-2-yl)picolinic acid]
IC50 [1]: > 10000 nM

COc1ccccc1-c1cc(CP(=O)(O)O)nc(C(=O)O)c1 [Compound 18d, 4-(2-Methoxyphenyl)-6-(phosphonomethyl)picolinic acid]
IC50 [1]: 300 ± 10 nM

CS(=O)(=O)Nc1cccc(C(=O)O)n1 [Compound 7, 6-(Methylsulfonamido)picolinic acid]
IC50 [1]: > 10000 nM
